# From publication PMC5218480 (PLoS ONE, 2017)
# Test system: MV-4-11 cells
# Assay: Gene expression microarray analysis (Affymetrix PrimeView) and GSEA
# Assay type: cell-based, human
# Parameters: RFU PODN (11730768_x_at) / Fold change /veh PODN (11730768_x_at) / RFU LINC00158 (11744669_a_at) / Fold change /veh LINC00158 (11744669_a_at) / RFU DUSP10 (11751237_a_at) / Fold change /veh DUSP10 (11751237_a_at) / RFU ID3 (11757404_x_at) / Fold change /veh ID3 (11757404_x_at) / RFU PLEKHG5 (11737974_s_at) / Fold change /veh PLEKHG5 (11737974_s_at) / RFU LRRC4B (11730491_at) / Fold change /veh LRRC4B (11730491_at) / RFU GIMAP4 (11747438_a_at) / Fold change /veh GIMAP4 (11747438_a_at) / RFU KRT8 (11758183_x_at) / Fold change /veh KRT8 (11758183_x_at) / RFU CNN1 (11734310_a_at) / Fold change /veh CNN1 (11734310_a_at) / RFU VPS37D (11726825_at) / Fold change /veh VPS37D (11726825_at) / RFU C10orf10 (11716522_x_at) / Fold change /veh C10orf10 (11716522_x_at) / RFU KIR2DL2 /// KIR2DL4 /// KIR2DL5A /// KIR2DL5B /// KIR2DS1 /// KIR2DS2 /// KIR2DS3 /// KIR2DS4 /// KIR3DL3 /// KIR3DL3 /// KIR3DS1 (11738374_at) / Fold change /veh KIR2DL2 /// KIR2DL4 /// KIR2DL5A /// KIR2DL5B /// KIR2DS1 /// KIR2DS2 /// KIR2DS3 /// KIR2DS4 /// KIR3DL3 /// KIR3DL3 /// KIR3DS1 (11738374_at) / RFU C1QL1 (11718748_at) / Fold change /veh C1QL1 (11718748_at) / RFU TMPRSS4 (11747572_a_at) / Fold change /veh TMPRSS4 (11747572_a_at) / RFU HAMP (11756126_x_at) / Fold change /veh HAMP (11756126_x_at) / RFU RNFT2 (11725882_a_at) / Fold change /veh RNFT2 (11725882_a_at) / RFU NR4A2 (11747474_a_at) / Fold change /veh NR4A2 (11747474_a_at) / RFU ABCC12 (11746883_a_at) / Fold change /veh ABCC12 (11746883_a_at) / RFU TMEM136 (11760407_x_at) / Fold change /veh TMEM136 (11760407_x_at) / RFU CLDN22 /// WWC2 (11732394_at) / Fold change /veh CLDN22 /// WWC2 (11732394_at) / RFU HLA-DPB1 (11760878_x_at) / Fold change /veh HLA-DPB1 (11760878_x_at) / RFU SPINT1 (11716480_a_at) / Fold change /veh SPINT1 (11716480_a_at) / RFU GAP43 (11754022_s_at) / Fold change /veh GAP43 (11754022_s_at) / RFU A4GNT (11735810_at) / Fold change /veh A4GNT (11735810_at) / RFU PRB3 (11715151_x_at) / Fold change /veh PRB3 (11715151_x_at) / RFU TUBB4B (11761932_at) / Fold change /veh TUBB4B (11761932_at) / RFU CAPN14 (11732068_a_at) / Fold change /veh CAPN14 (11732068_a_at) / RFU TMCC2 (11721928_a_at) / Fold change /veh TMCC2 (11721928_a_at) / RFU IRGQ (11745062_a_at) / Fold change /veh IRGQ (11745062_a_at) / RFU FAM174B (11720279_a_at) / Fold change /veh FAM174B (11720279_a_at) / RFU TMPRSS4 (11748680_a_at) / Fold change /veh TMPRSS4 (11748680_a_at) / RFU FAM212B (11763350_a_at) / Fold change /veh FAM212B (11763350_a_at) / RFU PLEKHG5 (11743358_a_at) / Fold change /veh PLEKHG5 (11743358_a_at) / RFU ZSCAN30 (11745921_a_at) / Fold change /veh ZSCAN30 (11745921_a_at) / RFU CMKLR1 (11741424_a_at) / Fold change /veh CMKLR1 (11741424_a_at) / RFU LOC101060620 /// MAPK8IP1 (11723275_at) / Fold change /veh LOC101060620 /// MAPK8IP1 (11723275_at) / RFU SPTSSB (11747773_x_at) / Fold change /veh SPTSSB (11747773_x_at) / RFU PRSS12 (11739890_at) / Fold change /veh PRSS12 (11739890_at) / RFU BIN1 (11741810_x_at) / Fold change /veh BIN1 (11741810_x_at) / RFU WNT11 (11732464_a_at) / Fold change /veh WNT11 (11732464_a_at) / RFU C10orf10 (11716521_a_at) / Fold change /veh C10orf10 (11716521_a_at) / RFU C5orf56 (11738089_at) / Fold change /veh C5orf56 (11738089_at) / RFU CYB561 (11721691_x_at) / Fold change /veh CYB561 (11721691_x_at) / RFU ANKRD19P (11752326_a_at) / Fold change /veh ANKRD19P (11752326_a_at) / RFU OR2T12 /// OR2T33 /// OR2T8 (11738714_s_at) / Fold change /veh OR2T12 /// OR2T33 /// OR2T8 (11738714_s_at) / RFU VCAN (11748164_a_at) / Fold change /veh VCAN (11748164_a_at) / RFU JSRP1 (11732532_at) / Fold change /veh JSRP1 (11732532_at) / RFU KRTAP10-11 (11738290_x_at) / Fold change /veh KRTAP10-11 (11738290_x_at) / RFU MYO3A (11730013_a_at) / Fold change /veh MYO3A (11730013_a_at) / RFU EBF3 (11725865_a_at) / Fold change /veh EBF3 (11725865_a_at) / RFU CAMK2N1 (11719241_x_at) / Fold change /veh CAMK2N1 (11719241_x_at) / RFU C5orf56 (11738088_a_at) / Fold change /veh C5orf56 (11738088_a_at) / RFU OLFML3 (11715873_a_at) / Fold change /veh OLFML3 (11715873_a_at) / RFU LOC100653217 /// NTM (11731650_a_at) / Fold change /veh LOC100653217 /// NTM (11731650_a_at) / RFU MAPK11 (11762145_a_at) / Fold change /veh MAPK11 (11762145_a_at) / RFU FIZ1 (11724087_x_at) / Fold change /veh FIZ1 (11724087_x_at) / RFU OASL (11726364_x_at) / Fold change /veh OASL (11726364_x_at) / RFU SOX15 (11748057_x_at) / Fold change /veh SOX15 (11748057_x_at) / RFU CD79A (11719716_a_at) / Fold change /veh CD79A (11719716_a_at) / RFU HIST1H1D (11736915_at) / Fold change /veh HIST1H1D (11736915_at) / RFU CASKIN2 (11723855_a_at) / Fold change /veh CASKIN2 (11723855_a_at) / RFU LOC730098 (11760151_x_at) / Fold change /veh LOC730098 (11760151_x_at) / RFU OR4N2 (11742367_at) / Fold change /veh OR4N2 (11742367_at) / RFU PRRT2 (11749266_a_at) / Fold change /veh PRRT2 (11749266_a_at) / RFU SNX32 (11753110_a_at) / Fold change /veh SNX32 (11753110_a_at) / RFU CDHR5 (11726645_a_at) / Fold change /veh CDHR5 (11726645_a_at) / RFU RCAN1 (11760418_a_at) / Fold change /veh RCAN1 (11760418_a_at) / RFU FAM167A (11723789_a_at) / Fold change /veh FAM167A (11723789_a_at) / RFU FAM26E (11764081_at) / Fold change /veh FAM26E (11764081_at) / RFU ISYNA1 (11749810_s_at) / Fold change /veh ISYNA1 (11749810_s_at) / RFU ACY1 (11761880_at) / Fold change /veh ACY1 (11761880_at) / RFU 11764098_at / Fold change /veh 11764098_at / RFU SAMD14 (11745864_x_at) / Fold change /veh SAMD14 (11745864_x_at) / RFU NPB (11741838_a_at) / Fold change /veh NPB (11741838_a_at) / RFU TMPRSS6 (11731388_a_at) / Fold change /veh TMPRSS6 (11731388_a_at) / RFU KRTAP10-2 (11738614_at) / Fold change /veh KRTAP10-2 (11738614_at) / RFU ARHGAP8 /// PRR5-ARHGAP8 (11727945_x_at) / Fold change /veh ARHGAP8 /// PRR5-ARHGAP8 (11727945_x_at) / RFU KRTAP5-7 /// NADSYN1 (11734609_at) / Fold change /veh KRTAP5-7 /// NADSYN1 (11734609_at) / RFU RASL12 (11751679_a_at) / Fold change /veh RASL12 (11751679_a_at) / RFU CDKN2B (11736163_a_at) / Fold change /veh CDKN2B (11736163_a_at) / RFU PRF1 (11729649_at) / Fold change /veh PRF1 (11729649_at) / RFU, ZNF638 /// ZNF638-IT1 / Fold change vs veh, ZNF638 /// ZNF638-IT1 / RFU, PANK3 / Fold change vs veh, PANK3 / RFU, SH3YL1 / Fold change vs veh, SH3YL1 / RFU, ZEB2 / Fold change vs veh, ZEB2 / RFU, NRIP1 / Fold change vs veh, NRIP1 / RFU, PTTG1IP / Fold change vs veh, PTTG1IP / RFU, CAPN2 / Fold change vs veh, CAPN2 / RFU, MED14 / Fold change vs veh, MED14 / RFU, SNORA58 / Fold change vs veh, SNORA58 / RFU, C1orf63 / Fold change vs veh, C1orf63 / RFU, LRRFIP1 / Fold change vs veh, LRRFIP1 / RFU, NDUFAF7 / Fold change vs veh, NDUFAF7 / RFU, SLC12A2 / Fold change vs veh, SLC12A2 / RFU, IBTK / Fold change vs veh, IBTK / RFU, ESF1 / Fold change vs veh, ESF1 / Fold change vs veh, TMEM50B / RFU, TAOK1 / Fold change vs veh, TAOK1 / RFU, ACBD3 / Fold change vs veh, ACBD3 / RFU, TMA16 / Fold change vs veh, TMA16 / RFU, RWDD3 / Fold change vs veh, RWDD3 / RFU, BCAT1 / Fold change vs veh, BCAT1 / RFU, EDEM3 / Fold change vs veh, EDEM3 / RFU, TMEM33 / Fold change vs veh, TMEM33 / RFU, WDR75 / Fold change vs veh, WDR75 / RFU, AHCTF1 / Fold change vs veh, AHCTF1 / RFU, TFRC / Fold change vs veh, TFRC / RFU, ZDHHC17 / Fold change vs veh, ZDHHC17 / RFU, NOM1 / Fold change vs veh, NOM1 / RFU, ARL8B / Fold change vs veh, ARL8B / RFU, ZBTB11 / Fold change vs veh, ZBTB11 / RFU, TAMM41 / Fold change vs veh, TAMM41 / RFU, KIAA1704 /// LOC100996395 / Fold change vs veh, KIAA1704 /// LOC100996395 / RFU, ING1 / Fold change vs veh, ING1 / RFU, TRMT61B / Fold change vs veh, TRMT61B / RFU, FUBP3 / Fold change vs veh, FUBP3 / RFU, TP53 / Fold change vs veh, TP53 / RFU, TNKS2 / Fold change vs veh, TNKS2 / RFU, ZFP14 / Fold change vs veh, ZFP14 / RFU, ACTR2 / Fold change vs veh, ACTR2 / RFU, PPP3R1 / Fold change vs veh, PPP3R1 / RFU, PIK3R1 / Fold change vs veh, PIK3R1 / RFU, HNRNPA1 / Fold change vs veh, HNRNPA1 / RFU, RNF170 / Fold change vs veh, RNF170 / RFU, ZNF28 / Fold change vs veh, ZNF28 / RFU, RNGTT / Fold change vs veh, RNGTT / RFU, OGT / Fold change vs veh, OGT / RFU, BRD1 / Fold change vs veh, BRD1 / RFU, MARS / Fold change vs veh, MARS / RFU, ZNF655 / Fold change vs veh, ZNF655 / RFU, FAHD1 / Fold change vs veh, FAHD1 / RFU, BDP1 / Fold change vs veh, BDP1 / RFU, LRRCC1 / Fold change vs veh, LRRCC1 / RFU, ARID1A / Fold change vs veh, ARID1A / RFU, ZNF146 / Fold change vs veh, ZNF146 / RFU, ZNF330 / Fold change vs veh, ZNF330 / RFU, GPN3 / Fold change vs veh, GPN3 / RFU, C9orf123 / Fold change vs veh, C9orf123 / RFU, N4BP2L2 / Fold change vs veh, N4BP2L2 / RFU, ARFIP1 / Fold change vs veh, ARFIP1 / RFU, FAM179B / Fold change vs veh, FAM179B / RFU, BCL10 / Fold change vs veh, BCL10 / RFU, UHRF1BP1L / Fold change vs veh, UHRF1BP1L / RFU, BET1 / Fold change vs veh, BET1 / RFU, CNOT2 / Fold change vs veh, CNOT2 / RFU, ZNF268 / Fold change vs veh, ZNF268 / Fold change vs veh, ZNF507 / RFU, DGCR2 / Fold change vs veh, DGCR2 / RFU, WDSUB1 / Fold change vs veh, WDSUB1 / Fold change vs veh, HSP90B1 /// MIR3652 / RFU, ADSS / Fold change vs veh, ADSS / RFU, GK / Fold change vs veh, GK / RFU, ZNF148 / Fold change vs veh, ZNF148 / RFU, TAF9 / Fold change vs veh, TAF9 / RFU, SLC1A5 / Fold change vs veh, SLC1A5 / RFU, SLMO2 / Fold change vs veh, SLMO2 / RFU, ABCC4 / Fold change vs veh, ABCC4 / RFU, LOC101060439 /// RAP1B / Fold change vs veh, LOC101060439 /// RAP1B / RFU, RFX7 / Fold change vs veh, RFX7 / RFU, GTPBP10 / Fold change vs veh, GTPBP10 / RFU, CNEP1R1 / Fold change vs veh, CNEP1R1 / RFU, BIVM-ERCC5 /// ERCC5 / Fold change vs veh, BIVM-ERCC5 /// ERCC5 / RFU, ILF3 / Fold change vs veh, ILF3 / RFU 11762660_at / Fold change /veh 11762660_at / RFU VCAN (11757783_s_at) / Fold change /veh VCAN (11757783_s_at) / RFU DDX43 (11728927_at) / Fold change /veh DDX43 (11728927_at) / RFU KRT8 (11758188_x_at) / Fold change /veh KRT8 (11758188_x_at) / RFU NKD1 (11759106_at) / Fold change /veh NKD1 (11759106_at) / RFU SRD5A1 (11742802_a_at) / Fold change /veh SRD5A1 (11742802_a_at) / RFU TPSAB1 /// TPSB2 (11721975_s_at) / Fold change /veh TPSAB1 /// TPSB2 (11721975_s_at) / RFU GSTM3 (11746129_a_at) / Fold change /veh GSTM3 (11746129_a_at) / RFU IL23R (11737362_x_at) / Fold change /veh IL23R (11737362_x_at) / RFU TMEM51 (11727254_a_at) / Fold change /veh TMEM51 (11727254_a_at) / RFU PIWIL2 (11732686_x_at) / Fold change /veh PIWIL2 (11732686_x_at) / RFU ORM1 (11744905_x_at) / Fold change /veh ORM1 (11744905_x_at) / RFU CCDC152 (11743942_at) / Fold change /veh CCDC152 (11743942_at) / RFU ECM1 (11717891_a_at) / Fold change /veh ECM1 (11717891_a_at) / RFU IL23R (11748794_a_at) / Fold change /veh IL23R (11748794_a_at) / RFU TNFAIP8L3 (11732012_x_at) / Fold change /veh TNFAIP8L3 (11732012_x_at) / RFU MBOAT4 (11741988_at) / Fold change /veh MBOAT4 (11741988_at) / RFU 11764193_at / Fold change /veh 11764193_at / RFU TMEM53 (11763286_at) / Fold change /veh TMEM53 (11763286_at) / RFU MAGEB2 (11727129_at) / Fold change /veh MAGEB2 (11727129_at) / RFU TMEM200A (11744735_a_at) / Fold change /veh TMEM200A (11744735_a_at) / RFU CCDC152 (11751479_a_at) / Fold change /veh CCDC152 (11751479_a_at) / RFU FAM211A (11726209_a_at) / Fold change /veh FAM211A (11726209_a_at) / RFU RGS16 (11746705_a_at) / Fold change /veh RGS16 (11746705_a_at) / RFU VCAN (11755009_s_at) / Fold change /veh VCAN (11755009_s_at) / RFU RHOB (11743442_s_at) / Fold change /veh RHOB (11743442_s_at) / RFU RGS16 (11720943_a_at) / Fold change /veh RGS16 (11720943_a_at) / RFU RGS16 (11720944_at) / Fold change /veh RGS16 (11720944_at) / RFU, VPS4B / Fold change vs veh, VPS4B / RFU, CREB1 / Fold change vs veh, CREB1 / RFU, DNAJC13 / Fold change vs veh, DNAJC13 / RFU, GNAQ / Fold change vs veh, GNAQ / RFU, CDK5R1 / Fold change vs veh, CDK5R1 / RFU, ZRANB3 / Fold change vs veh, ZRANB3 / RFU, CUL4A / Fold change vs veh, CUL4A / RFU, CCNY / Fold change vs veh, CCNY / RFU, UFL1 / Fold change vs veh, UFL1 / RFU, COG3 / Fold change vs veh, COG3 / RFU, DIAPH2 / Fold change vs veh, DIAPH2 / RFU, SKA2 / Fold change vs veh, SKA2 / RFU, AFF3 / Fold change vs veh, AFF3 / RFU, LMF1 / Fold change vs veh, LMF1 / RFU, IPO11 / Fold change vs veh, IPO11 / RFU, DFFB / Fold change vs veh, DFFB / RFU, FOXP1 / Fold change vs veh, FOXP1 / RFU, CARD8 / Fold change vs veh, CARD8 / RFU, STRN3 / Fold change vs veh, STRN3 / RFU, ADK / Fold change vs veh, ADK / RFU, RASSF2 / Fold change vs veh, RASSF2 / RFU, WIPF1 / Fold change vs veh, WIPF1 / RFU, LARP1B / Fold change vs veh, LARP1B / RFU, RASA1 / Fold change vs veh, RASA1 / RFU, RB1 / Fold change vs veh, RB1 / RFU, PPFIA1 / Fold change vs veh, PPFIA1 / RFU, MAT2A / Fold change vs veh, MAT2A / RFU, CCT5 / Fold change vs veh, CCT5 / RFU, WDR92 / Fold change vs veh, WDR92 / RFU, CUX1 / Fold change vs veh, CUX1 / RFU, TTC7A / Fold change vs veh, TTC7A / RFU, TMEM135 / Fold change vs veh, TMEM135 / RFU, DEPTOR / Fold change vs veh, DEPTOR / RFU, CPM / Fold change vs veh, CPM / RFU, DNAJB6 / Fold change vs veh, DNAJB6 / RFU, CACNA2D3 / Fold change vs veh, CACNA2D3 / RFU, DTX4 / Fold change vs veh, DTX4 / RFU, TFCP2 / Fold change vs veh, TFCP2 / RFU, GMCL1 /// GMCL1P1 / Fold change vs veh, GMCL1 /// GMCL1P1 / RFU, AEBP2 / Fold change vs veh, AEBP2 / RFU, SNHG1 /// SNORD22 /// SNORD25 /// SNORD26 /// SNORD27 /// SNORD28 /// SNORD29 /// SNORD31 / Fold change vs veh, SNHG1 /// SNORD22 /// SNORD25 /// SNORD26 /// SNORD27 /// SNORD28 /// SNORD29 /// SNORD31 / Fold change (Aza/veh), C12orf56 (ProbeSet 11735607_a_at) / Fold change (ACY-1035/veh), C12orf56 (ProbeSet 11735607_a_at) / Fold change (Aza/veh), FGFR1OP (ProbeSet 11751329_s_at) / Fold change (ACY-1035/veh), FGFR1OP (ProbeSet 11751329_s_at) / Fold change (Aza/veh), VPS36 (ProbeSet 11739960_a_at) / Fold change (ACY-1035/veh), VPS36 (ProbeSet 11739960_a_at) / RFU SYPL1 (11715823_x_at) / Fold change /veh SYPL1 (11715823_x_at) / RFU IGFBP7 (11715501_s_at) / Fold change /veh IGFBP7 (11715501_s_at) / RFU REEP3 (11722064_at) / Fold change /veh REEP3 (11722064_at) / RFU IGLL1 (11728026_x_at) / Fold change /veh IGLL1 (11728026_x_at): dose or concentration left out as unconfirmed
# Conditions: ProbeSet 11753055_s_at; LIST B
smiles,measurement,value
Nc1ncn([C@@H]2O[C@H](CO)[C@@H](O)[C@H]2O)c(=O)n1 [azacitidine],"Fold change vs veh, LOC101060439 /// RAP1B",0.86
